Test results as given in patent US12594252B2, “Methods for treating inflammatory skin conditions” (JOURNEY MEDICAL CORPORATION, priority 2018, dated 2026).

System: subjects diagnosed with papulopustular rosacea
Assay: 16-week, multi-center, randomized, double-blind, parallel-group, controlled efficacy study
Format: in vivo, human
Details: minocycline about 40 mg, equivalent doses
Protocol: The pharmaceutical compositions as shown in Example 1 and 3 were studied in a 16-week, multi-center, randomized, double-blind, parallel-group, controlled study to evaluate efficacy. Subjects, who were at least 18 years old, diagnosed with papulopustular rosacea were randomized to 4 different treatment groups (50 subjects each in groups 1 to 4). Each subject was allocated to one of the treatment groups, receiving a single dose of Example 1 (Group 1) and Example 3 (Group 2): […]®-40 mg doxycycline capsules (Group 3); and placebo capsules (Group 4), orally for 16 weeks. Subjects' visits were scheduled at screening, baseline (day 1), and weeks 4, 8, 12 and 16. Clinical assessments of efficacy was conducted based on, proportion of subjects with IGA 'treatment success (reduction in IGA grade)' and reduction in total inflammatory lesion count (sum of papules, pustules, and nodules) from baseline (day 1) to weeks 4, 8, 12 and 16. The results are shown in following table 9 (IGA 'treatment success), table 10 (total inflammatory lesion change), table 11 (P values) and FIG. 6, FIG. 7, FIG. 8.

CN(C)c1ccc(O)c2c1C[C@H]1C[C@H]3[C@H](N(C)C)C(O)=C(C(N)=O)C(=O)[C@@]3(O)C(O)=C1C2=O [minocycline, [4S-(4α,4aα,5aα,12aα)]-4,7-Bis(dimethylamino)-1,4,4a,5,5a,6,11,12a-octahydro-3,10,12,12a-tetrahydroxy-1,11-dioxo-2-naphthacenecarboxamide]
% reduction in lesion counts, more as compared to doxycycline (40 mg): about 100%
